# Measurements as given in patent US20250064789A1, “KETOAMIDE DERIVATIVES AND PHARMACEUTICAL USES THEREOF” (priority 2022, published 2025).
# Target: recombinant SARS-CoV-2 M^pro (Severe acute respiratory syndrome coronavirus 2 (2019-nCoV) (SARS-CoV-2), UniProt P0DTD1)
# Assay: Inhibition of SARS-CoV-2 M^pro enzyme activity (fluorescent substrate assay)
# Assay type: biochemical
# Conditions: inhibition of SARS-CoV-2 M^pro enzyme activity; values given in μM; read-out: IC50
row,SMILES,IC50
1,C[C@@H](NC(=O)C1CCC(F)(F)CC1)C(=O)NCC(=O)C(=O)NCc1ccccn1 [Compound 334],> 5 µM
2,COc1cccnc1CNC(=O)C(=O)[C@@H](Cc1ccccc1)NC(=O)[C@@H](C)NC(=O)C1CCC(F)(F)CC1 [Compound 339],6.13 ± 0.22 µM
3,C[C@@H](NC(=O)C1CCC(F)(F)CC1)C(=O)N[C@H](Cc1ccccc1)C(=O)C(=O)NCc1ncccc1Cl [Compound 341],11.5 ± 3.79 µM
4,C[C@@H](NC(=O)C1CCC(F)(F)CC1)C(=O)N[C@H](Cc1ccccc1)C(=O)C(=O)NCc1c[nH]cn1 [Compound 346],> 2.5 µM
5,C[C@@H](NC(=O)C1CCC(F)(F)CC1)C(=O)N[C@H](Cc1ccccc1)C(=O)C(=O)NCc1nccn1C [Compound 347],> 2.5 µM
6,Cc1nc(CNC(=O)C(=O)[C@@H](Cc2ccccc2)NC(=O)[C@@H](C)NC(=O)C2CCC(F)(F)CC2)cs1 [Compound 351],1.16 ± 0.32 µM
7,C[C@@H](NC(=O)C1CCC(F)(F)CC1)C(=O)N[C@H](Cc1ccccc1)C(=O)C(=O)NCc1ncco1 [Compound 352],2.5 ± 0.29 µM
8,C[C@@H](NC(=O)C1CCC(F)(F)CC1)C(=O)N[C@H](Cc1ccccc1)C(=O)C(=O)NCc1nc2ccccc2s1 [Compound 355],> 2.5 µM
9,C[C@@H](NC(=O)Cc1cc(OC(F)(F)F)ccc1F)C(=O)N[C@H](Cc1ccccc1)C(=O)C(=O)NCc1nccs1 [Compound 382],15 ± 1.3 µM

# Same assay, conditions: inhibition of SARS-CoV-2 M^pro enzyme activity; values in nM; read-out: IC50
row,SMILES,IC50
1,"O=C(NC1(C(=O)N[C@H](Cc2ccccc2)C(=O)C(=O)NCc2ccccn2)CCC1)OCC1CCC(F)(F)CC1 [Compound 313, (4,4-difluorocyclohexyl)methyl(R)-(1-((3,4-dioxo-1-phenyl-4-((pyridin-2-ylmethyl)amino)butan-2-yl)carbamoyl)cyclobutyl) carbamate]",0.016 ± 0.002 µM
2,O=C(NC1(C(=O)N[C@H](Cc2ccccc2)C(=O)C(=O)NCc2ccccn2)CCC1)OC1CCC(F)(F)CC1 [Compound 314],0.0124 ± 0.0003 µM
3,O=C(NC1(C(=O)N[C@H](Cc2ccccc2)C(=O)C(=O)NCc2ccccn2)CCC1)O[C@H]1CO[C@H]2OCC[C@H]21 [Compound 315],0.0202 ± 0.0033 µM
4,C[C@@H](NC(=O)OCc1ccccc1)C(=O)N[C@H](Cc1ccccc1)C(=O)C(=O)NCc1ccccn1 [Compound 316],0.0159 ± 0.0004 µM
5,O=C(NCc1ccccn1)C(=O)[C@@H](Cc1ccccc1)NC(=O)C1(C(=O)NC2CCC(F)(F)CC2)CC1 [Compound 319],0.0371 ± 0.0029 µM
6,O=C(NCc1ccccn1)C(=O)[C@@H](Cc1ccccc1)NC(=O)C1(C(=O)NCC2CCC(F)(F)CC2)CC1 [Compound 320],0.0167 ± 0.0003 µM
7,O=C(NCc1ccccn1)C(=O)[C@@H](Cc1ccccc1)NC(=O)C1(C(=O)NCc2cnccn2)CC1 [Compound 321],0.166 ± 0.0026 µM
8,O=C(NCc1ccccn1)C(=O)[C@@H](Cc1ccccc1)NC(=O)C1(C(=O)Nc2ccc(F)cc2)CC1 [Compound 322],0.125 ± 0.006 µM
9,CC(C)(C(=O)NC1CCC(F)(F)CC1)C(=O)N[C@H](Cc1ccccc1)C(=O)C(=O)NCc1ccccn1 [Compound 323],0.0307 ± 0.0019 µM
10,CC(C)(C(=O)N[C@H](Cc1ccccc1)C(=O)C(=O)NCc1ccccn1)C(=O)N1CCC(C(F)(F)F)CC1 [Compound 325],0.177 ± 0.0025 µM
11,"CC(C)(C(=O)N[C@H](Cc1ccccc1)C(=O)C(=O)NCc1ccccn1)n1cc(-c2ccccc2)cn1 [Compound 326, (R)-3-(2-methyl-2-(4-phenyl-1H-pyrazol-1-yl)propionamido)-2-oxo-4-phenyl-N-(pyridin-2-ylmethyl)butyramide]",0.0207 ± 0.0005 µM
12,CC(C)(C(=O)N[C@H](Cc1ccccc1)C(=O)C(=O)NCc1ccccn1)n1cc(Br)cn1 [Compound 327],0.245 ± 0.0027 µM
13,CC(C)(C(=O)N[C@H](Cc1ccccc1)C(=O)C(=O)NCc1ccccn1)n1cc(-c2ccccc2F)cn1 [Compound 328],0.0317 ± 0.0001 µM
14,CC(C)(C(=O)N[C@H](Cc1ccccc1)C(=O)C(=O)NCc1ccccn1)n1cc(-c2cccc(F)c2)cn1 [Compound 329],0.0194 ± 0.0018 µM
15,CC(C)(C(=O)N[C@H](Cc1ccccc1)C(=O)C(=O)NCc1ccccn1)n1cc(-c2ccc(F)cc2)cn1 [Compound 330],0.195 ± 0.0145 µM
16,"C[C@@H](NS(=O)(=O)c1ccc(F)cc1)C(=O)N[C@H](Cc1ccccc1)C(=O)C(=O)NCc1ccccn1 [Compound 331, (R)-3-((R)-2-((4-fluorophenyl)sulfonamido)propionamido)-2-oxo-4-phenyl-N-(pyridin-2-ylmethyl)butyramide]",0.101 ± 0.0028 µM
17,C[C@@H](NS(=O)(=O)c1cccnc1)C(=O)N[C@H](Cc1ccccc1)C(=O)C(=O)NCc1ccccn1 [Compound 332],0.8883 ± 0.0012 µM
18,C[C@@H](NC(=O)C1CCC(F)(F)CC1)C(=O)N[C@H](Cc1ccccc1)C(=O)C(=O)NCc1ccc(F)cn1 [Compound 336],0.015 ± 0.0008 µM
19,C[C@@H](NC(=O)C1CCC(F)(F)CC1)C(=O)N[C@H](Cc1ccccc1)C(=O)C(=O)NCc1ncccn1 [Compound 337],0.0879 ± 0.0146 µM
20,C[C@@H](NC(=O)C1CCC(F)(F)CC1)C(=O)N[C@H](Cc1ccccc1)C(=O)C(=O)NCc1ccncn1 [Compound 338],0.02 ± 0.0008 µM
21,Cc1cccnc1CNC(=O)C(=O)[C@@H](Cc1ccccc1)NC(=O)[C@@H](C)NC(=O)C1CCC(F)(F)CC1 [Compound 340],0.0762 ± 0.0017 µM
22,COc1ccnc(CNC(=O)C(=O)[C@@H](Cc2ccccc2)NC(=O)[C@@H](C)NC(=O)C2CCC(F)(F)CC2)c1 [Compound 342],0.0222 ± 0.0002 µM
23,C[C@@H](NC(=O)C1CCC(F)(F)CC1)C(=O)N[C@H](Cc1ccccc1)C(=O)C(=O)NCc1cc(Cl)ccn1 [Compound 343],0.0183 ± 0.0007 µM
24,C[C@@H](NC(=O)C1CCC(F)(F)CC1)C(=O)N[C@H](Cc1ccccc1)C(=O)C(=O)NCc1ccc(C(F)(F)F)cn1 [Compound 344],0.8572 ± 0.0031 µM
25,COc1ccc(CNC(=O)C(=O)[C@@H](Cc2ccccc2)NC(=O)[C@@H](C)NC(=O)C2CCC(F)(F)CC2)nc1 [Compound 345],0.0609 ± 0.0047 µM
26,C[C@@H](NC(=O)C1CCC(F)(F)CC1)C(=O)N[C@H](Cc1ccccc1)C(=O)C(=O)NCc1cocn1 [Compound 350],0.042 ± 0.0037 µM
27,C[C@@H](NC(=O)C1CCC(F)(F)CC1)C(=O)N[C@H](Cc1ccccc1)C(=O)C(=O)NCc1ccon1 [Compound 353],0.8458 ± 0.0021 µM

row,SMILES,IC50
1,Cc1cnc(CNC(=O)C(=O)[C@@H](Cc2ccccc2)NC(=O)[C@@H](C)NC(=O)C2CCC(F)(F)CC2)s1 [Compound 356],0.0431 ± 0.0001 µM
2,C[C@@H](NC(=O)C1CCC(F)(F)CC1)C(=O)N[C@H](Cc1ccccc1)C(=O)C(=O)NCc1cscn1 [Compound 357],0.0223 ± 0.0009 µM
3,CCC[C@@H](NC(=O)[C@@H](C)NC(=O)C1CCC(F)(F)CC1)C(=O)C(=O)NCc1ccccn1 [Compound 358],0.0932 ± 0.0011 µM
4,C[C@@H](NC(=O)C1CCC(F)(F)CC1)C(=O)N[C@H](Cc1ccc(F)cc1)C(=O)C(=O)NCc1ccccn1 [Compound 359],0.0364 ± 0.0019 µM
5,C[C@@H](NC(=O)C1CCC(F)(F)CC1)C(=O)N[C@H](Cc1cccc(F)c1)C(=O)C(=O)NCc1ccccn1 [Compound 360],0.031 ± 0.0039 µM
6,C[C@@H](NC(=O)C1CCC(F)(F)CC1)C(=O)N[C@H](Cc1ccccc1F)C(=O)C(=O)NCc1ccccn1 [Compound 361],0.0272 ± 0.0028 µM
7,C[C@@H](NC(=O)CC1CC(F)(F)C1)C(=O)N[C@H](Cc1ccco1)C(=O)C(=O)NCc1ccccn1 [Compound 364],0.0751 ± 0.0001 µM
8,C[C@@H](NC(=O)C1CCC(F)(F)CC1)C(=O)N[C@H](CC1CCCCC1)C(=O)C(=O)NCc1ccccn1 [Compound 365],0.0231 ± 0.001 µM
9,C[C@@H](NC(=O)C1C[C@@H]2[C@H](C1)C2(F)F)C(=O)N[C@H](Cc1ccco1)C(=O)C(=O)NCc1ccccn1 (some centres unmarked) [Compound 366],0.0646 ± 0.0007 µM
10,C[C@@H](NC(=O)C1CCC(F)(F)CC1)C(=O)N[C@H](Cc1ccco1)C(=O)C(=O)NCc1nccs1 [Compound 367],0.105 ± 0.0105 µM
11,C[C@@H](NC(=O)CC1CC1(F)F)C(=O)N[C@H](Cc1ccco1)C(=O)C(=O)NCc1nccs1 (some centres unmarked) [Compound 368],0.197 ± 0.014 µM
12,C[C@@H](NC(=O)C1CCCCCC1)C(=O)N[C@H](Cc1ccccc1)C(=O)C(=O)NCc1nccs1 [Compound 370],0.0148 ± 0.0007 µM
13,C[C@@H](NC(=O)C1CC2CCC1C2)C(=O)N[C@H](Cc1ccccc1)C(=O)C(=O)NCc1nccs1 (some centres unmarked) [Compound 371],0.0317 ± 0.0026 µM
14,C[C@@H](NC(=O)C1CC12CCC(F)(F)CC2)C(=O)N[C@H](Cc1ccccc1)C(=O)C(=O)NCc1nccs1 (some centres unmarked) [Compound 372],0.0106 ± 0.0004 µM
15,C[C@@H](NC(=O)CC1CCC(F)(F)CC1)C(=O)N[C@H](Cc1ccccc1)C(=O)C(=O)NCc1nccs1 [Compound 373],0.016 ± 0.0008 µM
16,C[C@@H](NC(=O)C1(F)CCCCC1)C(=O)N[C@H](Cc1ccccc1)C(=O)C(=O)NCc1nccs1 [Compound 374],0.0208 ± 0.0016 µM
17,C[C@@H](NC(=O)CC1CC1(F)F)C(=O)N[C@H](Cc1ccccc1)C(=O)C(=O)NCc1nccs1 (some centres unmarked) [Compound 376],0.0352 ± 0.0036 µM
18,C[C@@H](NC(=O)[C@@H]1C[C@@H]2[C@H](C1)C2(F)F)C(=O)N[C@H](Cc1ccccc1)C(=O)C(=O)NCc1nccs1 [Compound 377],0.08 ± 0.0036 µM
19,C[C@@H](NC(=O)c1cc2ccccc2[nH]1)C(=O)N[C@H](Cc1ccccc1)C(=O)C(=O)NCc1nccs1 [Compound 380],0.0558 ± 0.0072 µM
20,C[C@@H](NC(=O)c1ccn(-c2ccccc2)n1)C(=O)N[C@H](Cc1ccccc1)C(=O)C(=O)NCc1nccs1 [Compound 381],0.4168 ± 0.004 µM
21,C[C@@H](NC(=O)c1cc(Cl)cc(OC(F)(F)F)c1)C(=O)N[C@H](Cc1ccccc1)C(=O)C(=O)NCc1nccs1 [Compound 383],0.0215 ± 0.0008 µM
22,COc1ccc(OC(F)(F)F)cc1C(=O)N[C@H](C)C(=O)N[C@H](Cc1ccccc1)C(=O)C(=O)NCc1nccs1 [Compound 384],0.0155 ± 0.0003 µM
23,C[C@@H](NC(=O)c1cc(OC(F)(F)F)ccc1F)C(=O)N[C@H](Cc1ccccc1)C(=O)C(=O)NCc1nccs1 [Compound 385],0.0558 ± 0.0072 µM
24,O=C(CC1CC1(F)F)NCC(=O)N[C@H](Cc1ccccc1)C(=O)C(=O)NCc1nccs1 (some centres unmarked) [Compound 386],0.166 ± 0.0021 µM
25,O=C(CNC(=O)C1CCC(F)(F)CC1)N[C@H](Cc1ccccc1)C(=O)C(=O)NCc1nccs1 [Compound 388],0.0629 ± 0.0081 µM
26,O=C(CNC(=O)[C@@H]1C[C@@H]2[C@H](C1)C2(F)F)N[C@H](Cc1ccccc1)C(=O)C(=O)NCc1nccs1 [Compound 389],0.11 ± 0.0016 µM
